In the supplement of paper PMC10331698:
± gives the standard deviation of the averaged measurements.

What was measured:
Assay in all cases: level (log10 ratio to DMSO vehicle control); higher = higher biomarker level / cell amount than vehicle control
Settings in all cases: in DMSO
[1] = compound: O=C(O)CCC(F)(F)C(F)(F)C(F)(F)F [3:3 Fluorotelomer carboxylic acid]
Experimental: (§1)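 BioMAP Diversity Plus panel of 12 human primary cell co-culture systems (3C, 4H, LPS, SAg, BT, BF4T, BE3C, CASM3C, HDF3CGF, KF3CT, MyoF, Mphg). Compounds were added 1 h before stimulation and left for 24 h (MyoF 48 h; BT 72 h for soluble read-outs or 6 d for IgG). Biomarkers were read by ELISA, cytotoxicity by SRB, PBMC viability and proliferation by Alamar Blue. Each well value was divided by the mean of 8 DMSO control wells on the same plate and log10 transformed; duplicate blinded samples were tested at 4 concentrations.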

[2] = compound: OCC(F)(F)C(F)(F)C(F)(F)C(F)(F)C(F)(F)C(F)F [1H,1H,7H-Dodecafluoro-1-heptanol]
Experimental: as §1

[3] = compound: O=S(=O)(O)C(F)(F)C(F)(F)C(F)(F)C(F)(F)C(F)(F)C(F)(F)C(F)(F)C(F)(F)F [Perfluorooctanesulfonic acid]
Experimental: as §1

1-(Perfluorohexyl)octane = compound: CCCCCCCCC(F)(F)C(F)(F)C(F)(F)C(F)(F)C(F)(F)C(F)(F)F [1-(Perfluorohexyl)octane]
Experimental: as §1

[4] = compound: CNS(=O)(=O)C(F)(F)C(F)(F)C(F)(F)C(F)(F)C(F)(F)C(F)(F)C(F)(F)C(F)(F)F [N-Methylperfluorooctanesulfonamide]
Experimental: as §1

Perfluorohexanoic acid = compound: O=C(O)C(F)(F)C(F)(F)C(F)(F)C(F)(F)C(F)(F)F [Perfluorohexanoic acid]
Experimental: as §1

[5] = compound: FC(F)(F)C(F)(F)C(F)(F)C(F)(F)C(F)(F)C(F)(F)C(F)(F)CCI [1-Iodo-1H,1H,2H,2H-perfluorononane]
Experimental: as §1

| Test System | level (log10) ([1]; 6700 nM) | level (log10) ([1]; 20000 nM) | level (log10) ([1]; 60000 nM) | level (log10) ([2]; 6700 nM) | level (log10) ([2]; 20000 nM) | level (log10) ([2]; 60000 nM) | level (log10) ([3]; 6700 nM) | level (log10) ([3]; 20000 nM) | level (log10) ([3]; 60000 nM) | level (log10) (1-(Perfluorohexyl)octane; 6700 nM) | level (log10) (1-(Perfluorohexyl)octane; 20000 nM) | level (log10) ([4]; 6700 nM) | level (log10) ([4]; 20000 nM) | level (log10) ([4]; 60000 nM) | level (log10) (Perfluorohexanoic acid; 6700 nM) | level (log10) (Perfluorohexanoic acid; 20000 nM) | level (log10) (Perfluorohexanoic acid; 60000 nM) | level (log10) ([5]; 6700 nM) | level (log10) ([5]; 20000 nM) |
| --- | --- | --- | --- | --- | --- | --- | --- | --- | --- | --- | --- | --- | --- | --- | --- | --- | --- | --- | --- |
| lMphg:M-CSF | -0.021 ± 0.024 | -0.008 ± 0.0085 | -0.0115 ± 0.0021 | -0.0115 ± 0.005 | -0.0035 ± 0.0078 | 0.0085 ± 0.044 | -0.003 ± 0.013 | -0.008 ± 0.0085 | 0.03 ± 0.0042 | -0.0235 ± 0.021 | -0.0205 ± 0.036 | -0.046 ± 0.0028 | -0.0305 ± 0.016 | -0.0015 ± 0.021 | 0.0005 ± 0.028 | -0.011 ± 0.028 | -0.023 ± 0.0014 | -0.023 ± 0.037 | -0.015 ± 0.0014 |
| HDF3CGF:CXCL8/IL-8 | -0.006 ± 0.016 | -0.002 ± 0.0099 | -0.004 ± 0.017 | 0.0045 ± 0.016 | 0.0035 ± 0.019 | 0.0055 ± 0.0035 | -0.017 ± 0.0057 | -0.014 ± 0.0042 | 0.0055 ± 0.015 | 0.0065 ± 0.0064 | 0.008 ± 0.0057 | -0.0145 ± 0.0035 | -0.0195 ± 0.00071 | -0.0015 ± 0.0035 | -0.003 ± 0.0057 | 0.006 ± 0.0014 | 0.005 ± 0.0071 | 0.002 ± 0.0014 | 0.0165 ± 0.019 |
| MyoF:Collagen IV | -0.0275 ± 0.042 | -0.029 ± 0.031 | -0.004 ± 0.035 | -0.0115 ± 0.015 | -0.0025 ± 0.018 | 0.011 ± 0.025 | 0.0045 ± 0.039 | -0.0005 ± 0.005 | 0.037 ± 0.034 | 0.0135 ± 0.0064 | 0.0505 ± 0.069 | 0.228 ± 0.022 | 0.247 ± 0.024 | 0.273 ± 0.028 | 0.0245 ± 0.0064 | 0.0165 ± 0.0064 | 0.0345 ± 0.037 | 0.027 ± 0.0042 | 0.082 ± 0.018 |
| 3C:CD106/VCAM-1 | -0.0135 ± 0.022 | -0.028 ± 0.024 | -0.019 ± 0.0085 | 0.001 ± 0.0042 | -0.0245 ± 0.032 | -0.0195 ± 0.016 | 0.0005 ± 0.026 | 0.0045 ± 0.035 | 0.0295 ± 0.015 | -0.009 ± 0.0057 | 0.0045 ± 0.0092 | -0.03 ± 0.038 | 0.049 ± 0.024 | -0.0295 ± 0.012 | -0.002 ± 0.018 | -0.0025 ± 0.029 | 0.005 ± 0.044 | -0.015 ± 0.014 | -0.0115 ± 0.0021 |
| KF3CT:IL-1alpha | -0.0065 ± 0.059 | 0.0035 ± 0.023 | 0.0135 ± 0.019 | -0.016 ± 0.025 | -0.0195 ± 0.032 | -0.0115 ± 0.043 | 0.0105 ± 0.0064 | -0.0165 ± 0.00071 | -0.016 ± 0.0028 | -0.009 ± 0.04 | 0.0175 ± 0.0092 | 0.0585 ± 0.026 | 0.0435 ± 0.026 | 0.051 ± 0.016 | -0.0045 ± 0.011 | -0.0185 ± 0.011 | 0.008 ± 0.021 | -0.01 ± 0.0071 | 0.019 ± 0.047 |
| BE3C:uPA | -0.0045 ± 0.023 | -0.018 ± 0.017 | -0.0115 ± 0.0021 | -0.0055 ± 0.032 | -0.004 ± 0.027 | -0.0055 ± 0.0035 | -0.003 ± 0.0099 | -0.031 | -0.122 ± 0.013 | -0.0145 ± 0.012 | -0.0145 ± 0.0092 | 0.008 ± 0.0085 | 0.0065 ± 0.0064 | 0.003 ± 0.0014 | -0.03 ± 0.013 | -0.01 ± 0.018 | 0.0025 ± 0.016 | 0.003 ± 0.033 | -0.0125 ± 0.015 |
| lMphg:IL-1alpha | -0.0005 ± 0.11 | 0 ± 0.057 | 0.028 ± 0.059 | -0.0255 ± 0.056 | -0.0275 ± 0.079 | -0.0735 ± 0.18 | 0.0015 ± 0.022 | 0.0075 ± 0.013 | 0.017 ± 0.0085 | -0.0215 ± 0.013 | 0.0085 ± 0.074 | 0.075 ± 0.017 | 0.132 ± 0.035 | 0.15 ± 0.013 | 0.0035 ± 0.04 | 0 ± 0.011 | -0.009 ± 0.033 | -0.012 ± 0.014 | 0.055 ± 0.045 |
| 3C:CCL2/MCP-1 | -0.011 ± 0.013 | -0.0025 ± 0.005 | 0.022 ± 0.037 | 0.0225 ± 0.021 | 0.0145 ± 0.023 | 0.0325 ± 0.012 | 0.0115 ± 0.0035 | -0.012 ± 0.0028 | -0.0065 ± 0.013 | -0.008 ± 0.0014 | 0.0205 ± 0.023 | 0.0175 ± 0.0021 | 0.0235 ± 0.028 | 0.031 ± 0.034 | -0.006 ± 0.0028 | -0.0145 ± 0.005 | 0.0115 ± 0.022 | -0.005 | 0.019 ± 0.011 |
| BE3C:Keratin 8/18 | 0.0025 ± 0.0021 | -0.003 ± 0.0042 | -0.023 ± 0.0057 | -0.004 ± 0.0042 | 0.006 ± 0.014 | -0.0135 ± 0.0035 | 0.0205 ± 0.0021 | 0.016 ± 0.011 | -0.073 ± 0.04 | 0.011 ± 0.0071 | 0.004 ± 0.054 | -0.0025 ± 0.012 | -0.0135 ± 0.0078 | -0.0055 ± 0.023 | -0.017 ± 0.0057 | -0.0125 ± 0.0035 | -0.0175 ± 0.021 | -0.005 ± 0.017 | -0.007 ± 0.0085 |
| KF3CT:uPA | -0.01 ± 0.017 | -0.0165 ± 0.0092 | -0.009 ± 0.0014 | 0.001 ± 0.011 | -0.0155 ± 0.013 | 0.0035 ± 0.015 | -0.001 ± 0.0057 | -0.012 ± 0.018 | -0.021 ± 0.0057 | 0.01 ± 0.024 | -0.0055 ± 0.029 | 0.007 ± 0.014 | -0.011 ± 0.014 | -0.0085 ± 0.012 | 0.0125 ± 0.0064 | -0.004 ± 0.0085 | 0.016 ± 0.0099 | 0.0025 ± 0.018 | 0.006 ± 0.016 |
| CASM3C:Proliferation | -0.01 ± 0.011 | 0.005 ± 0.0042 | 0.0005 ± 0.022 | 0.004 ± 0.0042 | -0.006 ± 0.025 | -0.018 ± 0.013 | 0.006 ± 0.042 | 0.0055 ± 0.022 | 0.057 ± 0.02 | -0.0005 ± 0.067 | 0.0175 ± 0.046 | 0.015 ± 0.031 | -0.006 ± 0.035 | -0.0605 ± 0.094 | -0.001 ± 0.018 | -0.065 | -0.0055 ± 0.015 | -0.001 | 0.0105 ± 0.04 |
| CASM3C:CD142/Tissue Factor | 0.0015 ± 0.012 | -0.0015 ± 0.013 | -0.0305 ± 0.054 | 0.0235 ± 0.043 | 0.0015 ± 0.0064 | -0.0185 ± 0.0035 | -0.035 ± 0.02 | -0.033 ± 0.048 | -0.0525 ± 0.09 | -0.0265 ± 0.028 | -0.0295 ± 0.005 | -0.025 ± 0.037 | -0.0115 ± 0.005 | 0.019 ± 0.011 | -0.0125 ± 0.013 | -0.019 ± 0.0042 | -0.0145 ± 0.005 | 0.0155 ± 0.049 | -0.055 ± 0.0028 |
| KF3CT:CXCL10/IP-10 | -0.0015 ± 0.0035 | -0.008 ± 0.0057 | -0.0045 ± 0.0035 | 0.004 | 0 ± 0.0014 | -0.0055 ± 0.005 | -0.012 ± 0.02 | -0.0065 ± 0.03 | -0.015 ± 0.013 | -0.0055 ± 0.018 | -0.011 ± 0.0099 | 0.0005 ± 0.04 | 0.003 ± 0.034 | 0.0255 ± 0.026 | 0.0045 ± 0.0092 | 0.0045 ± 0.005 | 0.017 ± 0.0014 | -0.0065 ± 0.005 | -0.0235 ± 0.0092 |
